# According to patent US8222300B2, “Methods of treating parkinson's disease using halogenated volatile compounds” (Mouse Specifics, Inc., priority 2007, dated 2012):
# Test system: adult female CD-1 mice
# Format: in vivo
# Method: Isoflurane is a halogenated inhalation anesthetic and is routinely used in laboratory animals for its anesthetic properties. In this experiment, posture and gait in mice after brief isoflurane anesthesia was investigated.
# Ventral plane videography was used to image 4 adult female CD-1 mice walking 25 cm/s on a transparent treadmill belt just prior to 5 minutes of isoflurane (2.5% isoflurane final concentration in 100% oxygen) anesthesia. Gait analysis was again performed at 25 cm/s 1, 15, 30 and 60 minutes after the animals regained their righting reflex. Mice were placed in a chamber and delivered the isoflurane via a system which vaporized the isoflurane and mixed it with the oxygen using an anesthesia system (EZ Anesthesia™, Euthanex).
# When the mice first emerged from the anesthesia (animals were moved from an anesthesia box to room air, including oxygen and CO2), they were groggy for about 2-40 seconds. Following the brief groggy period, a supranormal function became apparent as their gait (including stride length, stance width, and swing duration) was improved relative to prior to the administration of the isoflurane.
# [1] = following cessation of anesthesia
structure (smiles),measurement,setting,value
"FC(F)OC(Cl)C(F)(F)F (stereo not shown) [isoflurane, 2-chloro-2-(difluoromethoxy)-1,1,1-trifluoro-ethane]",Increase of swing duration compared to baseline,1 minute after recovery,~50%
same,Stride length,"1 minute after recovery from 5 minutes of 2.5% isoflurane in 100% oxygen, treadmill 25 cm/s, baseline 6.3±0.1 cm, P<0.05",7.6±0.2 cm
same,Stance width variability,"1 minute after recovery from isoflurane, versus baseline",lower
same,Swing duration,"1 minute after recovery, baseline 77±3 ms, P<0.05",103 ± 3 ms
same,Propulsion duration of the hind limbs,"1 minute after recovery, baseline 128±5 ms, P<0.05",167 ± 6 ms
same,Stepping frequency,"1 minute after recovery, treadmill 25 cm/s, baseline 4.1±0.1 Hz, P<0.05",3.3±0.1 Hz
same,Persistence of some supranormal gait characteristics,[1],~30 min
same,Time for all gait metrics to return to baseline,[1],≤ 60 min
same,Duration of groggy period on emergence from anesthesia,"mouse, in vivo",2 to 40 s
same,Increase in stride length,some mice emerging from isoflurane anesthesia,about 25%
